Experimental findings from patent publication US9156796B2, “Benzoimidazole-carboxylic acid amide derivatives as APJ receptor modulators” (SANOFI, priority 2013, dated 2015) are described below.

This assay concerns the target T1, human apelin receptor (Homo sapiens, UniProt P35414).
T1 construct: expressed in transfected cells
T1 sequence (P35414 1-380): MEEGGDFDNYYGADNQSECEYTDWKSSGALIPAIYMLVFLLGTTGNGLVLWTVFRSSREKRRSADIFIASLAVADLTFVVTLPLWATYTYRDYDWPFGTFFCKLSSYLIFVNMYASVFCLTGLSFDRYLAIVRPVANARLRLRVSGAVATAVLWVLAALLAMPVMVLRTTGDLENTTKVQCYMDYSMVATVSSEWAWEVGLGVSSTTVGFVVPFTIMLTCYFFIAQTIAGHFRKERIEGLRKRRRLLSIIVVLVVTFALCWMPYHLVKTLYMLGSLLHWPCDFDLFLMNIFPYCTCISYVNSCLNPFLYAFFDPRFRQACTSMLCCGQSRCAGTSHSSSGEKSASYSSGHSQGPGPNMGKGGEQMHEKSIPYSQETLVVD
In words: Determination of agonism on the human apelin receptor by a calcium fluorescence assay (FLIPR). It is filed as cell-based. To be noted: HEK293 cells stably transfected with human apelin receptor and Giaq protein, Fluo-4 calcium fluorescence, read-out: EC50 (APJ agonism). The source says:
Determination of Agonism on the Human Apelin Receptor by a Calcium Fluorescence Assay (FLIPR)
The assay is based on the detection of intracellular calcium changes detected by the selective, calcium-chelating dye Fluo-4 (Molecular Probes). A large fluorescence intensity increase is observed upon calcium association with Fluo-4. The dye is delivered to the cell interior using an acetoxymethylester form of Fluo-4, where the intracellular esterase activity results in the charged species being released and trapped within the cytoplasm of the cell. […] By co-expressing the human apelin receptor and a promiscuous Giaq protein, agonism of the apelin receptor couples to phospholipase-C resulting in intracellular calcium mobilization.
The HEK293 cells were stably transfected with the human apelin receptor and the Giaq protein. Cells were selected and maintained in a log phase of growth at 37° and 5% CO2 in the Iscove's minimal essential medium, 10% fetal calf serum, 1× Penicillin-Streptomycin, 400 μg/mL G418. One day prior the assay, cells were passaged by accutase and plated at a density of 50,000 cells/well onto a 96-well plates with black border but clear bottom (Costar, cat#3904) in a final volume of 200 μl growth medium.
In order to load the cells the next day with the calcium-sensitive dye, growth medium was carefully replaced by dye solution (100 μl/well) containing Fluo-4 (4 μM) in basic measurement buffer (135 mM NaCl, 5 mM KCl, 1 mM magnesium sulphate, 5 mM glucose, 20 mM Hepes, 2.5 mM probenecid; adjusted to pH 7.4). Cells were incubated for 1 h at 37° C., and then washed 3× with buffer containing no dye. The washer was programmed to leave a remaining volume of 150 μl after the third wash in the plate.
During the dye-loading of the cells, a serial compound dilution was performed in a separate 96-well plate with overall 4× increased concentrations. Small aliquots of DMSO stock solutions of the compounds (10 mM in 100% DMSO were aliquoted into 150 μl buffer in the first rows of the 96-well plates, and then serially diluted by a factor of 1:3 transferring each time 30 μl to the next rows already containing 60 μl buffer. All compounds were tested in a least 7 concentrations, each condition was performed in triplicates. As comparator, we used freshly prepared apelin-13 solutions, for which also a concentration-response curve was determined at each measurement day. The compound plate was incubated for 10 min after the final dilutions steps at 37° C. before transferring the dye-loaded cell plate and the compound plate into a FLIPR Tetra reader (Molecular Devices). Measurement within this reader started by pipetting the agonist solution (50 μl) on the cell plate. Overall perform 60 reads were performed with an interval of 2 sec. The maximum of the fluorescence transient was used to calculate the agonistic response of the cells. In order to normalize this response, which may vary from plate to plate we set the maximum fluorescence achieved by 1 μM apelin-13 on this plate as 100%.
EC-50 values for apelin-13 and the apelin receptor compounds described in this patent were determined by standard algorithms using a specific software package.
With `CCC(CC)n1c(Cc2cccs2)nc2cc(C(=O)N[C@@H](CC(C)C)C(=O)NCc3nccs3)ccc21` [Example 250, 1-(1-Ethyl-propyl)-2-thiophen-2-ylmethyl-1H-benzoimidazole-5-carboxylic acid {(S)-3-methyl-1-[(thiazol-2-ylmethyl)-carbamoyl]-butyl}-amide], the half-maximal effective concentration (EC50) (as a rule, the concentration needed to bring the measured effect to its halfway point) was 0.52 µM.

Turning to `CCC(CC)n1c(Cc2cccs2)nc2cc(C(=O)NC(C)(CC(C)C)C(=O)O)ccc21` (single isomer, unassigned) [Example 440], the EC50 came out at 6.59 µM.

On to `CC(C)C[C@H](NC(=O)c1ccc2c(c1)nc(Cc1ccoc1)n2C1CCCCC1)C(=O)O` [Example 138, (S)-2-[(1-Cyclohexyl-2-furan-3-ylmethyl-1H-benzoimidazole-5-carbonyl)-amino]-4-methyl-pentanoic acid], for which the 50% effective concentration (EC50) came out at 2.93 µM.

As for `CC(C)C[C@H](NC(=O)c1ccc2c(c1)nc(CC1CCCC1)n2CC(C)C)C(=O)O` [Example 128, (S)-2-[(2-Cyclopentylmethyl-1-isobutyl-1H-benzoimidazole-5-carbonyl)-amino]-4-methyl-pentanoic acid], the EC50 was 10 µM.

With `CCC(CC)n1c(Cc2cccs2)nc2cc(C(=O)N[C@@H](CC(C)C)C(=O)NCCCCN3CCCC3)ccc21` [Example 253, 1-(1-Ethyl-propyl)-2-thiophen-2-ylmethyl-1H-benzoimidazole-5-carboxylic acid [(S)-3-methyl-1-(4-pyrrolidin-1-yl-butylcarbamoyl)-butyl]-amide], the EC50 turned out to be 0.242 µM.

Take `CCC(CC)n1c(Cc2cccs2)nc2cc(C(=O)N[C@@H](CC3CCCCC3)C(=O)O)ccc21` [Example 125, (S)-3-Cyclohexyl-2-{[1-(1-ethyl-propyl)-2-thiophen-2-ylmethyl-1H-benzoimidazole-5-carbonyl]-amino}-propionic acid]: the EC50 stood at 0.078 µM.

Take `CCC(CC)n1c(Cc2cccs2)nc2cc(C(=O)N[C@@H](CC(C)C)C(=O)NCC3COCCO3)ccc21` (stereo partly drawn) [Example 393, 1-(1-Ethyl-propyl)-2-thiophen-2-ylmethyl-1H-benzoimidazole-5-carboxylic acid {(S)-1-[([1,4]dioxan-2-ylmethyl)-carbamoyl]-3-methyl-butyl}-amide]: the 50% effective concentration (EC50) worked out at 1.36 µM.

For `CC(C)C[C@@H](CC(=O)O)NC(=O)c1ccc2c(c1)nc(Cc1cccs1)n2C1CCCCC1C(F)(F)F` (stereo partly drawn) [Example 102, (S)-5-Methyl-3-{[2-thiophen-2-ylmethyl-1-(2-trifluoromethyl-cyclohexyl)-1H-benzoimidazole-5-carbonyl]-amino}-hexanoic acid], the concentration giving a half-maximal response (EC50) came out at 0.247 µM.

Consider `O=C(O)C[C@H](Cc1ccccc1)NC(=O)c1ccc2c(c1)nc(Cc1cccs1)n2C1CCCCC1C(F)(F)F` (stereo partly drawn) [Example 103, (S)-4-Phenyl-3-{[2-thiophen-2-ylmethyl-1-(2-trifluoromethyl-cyclohexyl)-1H-benzoimidazole-5-carbonyl]-amino}-butyric acid], for which the concentration giving a half-maximal response (EC50) stood at 11 µM.

Turning to `CCC(CC)n1c(Cc2cccs2)nc2cc(C(=O)N[C@@H](CC(C)C)C(=O)NCCC3CCCN3C)ccc21` (stereo partly drawn) [Example 219, 1-(1-Ethyl-propyl)-2-thiophen-2-ylmethyl-1H-benzoimidazole-5-carboxylic acid {(S)-3-methyl-1-[2-(1-methyl-pyrrolidin-2-yl)-ethylcarbamoyl]-butyl}-amide], the 50% effective concentration (EC50) turned out to be 0.274 µM.

Consider `CCC[C@H](CO)NC(=O)c1ccc2c(c1)nc(CC1CCCC1)n2C(CC)CC` [Example 185, 2-Cyclopentylmethyl-1-(1-ethyl-propyl)-1H-benzoimidazole-5-carboxylic acid ((R)-1-hydroxymethyl-butyl)-amide], for which the concentration giving a half-maximal response (EC50) was 14.1 µM.

In the case of `CCC(CC)n1c(Cc2cccs2)nc2cc(C(=O)N[C@@H](CC(C)C)C(=O)N3CCN(C4CCCC4)CC3)ccc21` [Example 321, 1-(1-Ethyl-propyl)-2-thiophen-2-ylmethyl-1H-benzoimidazole-5-carboxylic acid [(S)-1-(4-cyclopentyl-piperazine-1-carbonyl)-3-methyl-butyl]-amide], the concentration giving a half-maximal response (EC50) worked out at 1.53 µM.

As for `CC(C)C[C@H](NC(=O)c1ccc2c(c1)nc(CC1CCCC1)n2C1CCCCC1C)C(=O)O` (stereo partly drawn) [Example 150, (S)-2-{[2-Cyclopentylmethyl-1-(2-methyl-cyclohexyl)-1H-benzoimidazole-5-carbonyl]-amino}-4-methyl-pentanoic acid], the EC50 stood at 2.8 µM.

Turning to `CCC(CC)n1c(Cc2cccs2)nc2cc(C(=O)N[C@@H](CC(C)C)C(=O)N[C@H]3C[C@@H]3c3ccccc3)ccc21` [Example 259, 1-(1-Ethyl-propyl)-2-thiophen-2-ylmethyl-1H-benzoimidazole-5-carboxylic acid [(S)-3-methyl-1-((1S,2R)-2-phenyl-cyclopropylcarbamoyl)-butyl]-amide], the EC50 was found to be 6.65 µM.

On to `CCOCCCNC(=O)[C@H](CC(C)C)NC(=O)c1ccc2c(c1)nc(Cc1cccs1)n2C(CC)CC` [Example 359, 1-(1-Ethyl-propyl)-2-thiophen-2-ylmethyl-1H-benzoimidazole-5-carboxylic acid [(S)-1-(3-ethoxy-propylcarbamoyl)-3-methyl-butyl]-amide], for which the EC50 was determined as 2.14 µM.

Take `CCC(CC)n1c(Cc2cccs2)nc2cc(C(=O)N[C@H](CCC(=O)O)[C@@H](C)CC)ccc21` [Example 71, (4R,5S)-4-{[1-(1-Ethyl-propyl)-2-thiophen-2-ylmethyl-1H-benzoimidazole-5-carbonyl]-amino}-5-methyl-heptanoic acid]: the half-maximal effective concentration (EC50) worked out at 0.073 µM.

Turning to `O=C(N[C@@H](Cc1ccccc1)C(=O)O)c1ccc2c(c1)nc(Cc1cccs1)n2C1CCCCC1C(F)(F)F` (stereo partly drawn) [Example 89, (S)-3-Phenyl-2-{[2-thiophen-2-ylmethyl-1-(2-trifluoromethyl-cyclohexyl)-1H-benzoimidazole-5-carbonyl]-amino}-propionic acid], the concentration for a half-maximal effect (EC50) came out at 9.33 µM.

In the case of `CCC(CC)n1c(Cc2cccs2)nc2cc(C(=O)N[C@@H](CC(C)C)CS(=O)(=O)NC)ccc21` [Example 485, 1-(1-Ethyl-propyl)-2-thiophen-2-ylmethyl-1H-benzoimidazole-5-carboxylic acid ((S)-3-methyl-1-methylsulfamoylmethyl-butyl)-amide], the EC50 amounted to 0.813 µM.

As to `CCCCC(NC(=O)c1ccc2c(c1)nc(Cc1cccs1)n2C(CC)CC)C(C)(C)C(=O)O` (single isomer, unassigned) [Example 468], the concentration for a half-maximal effect (EC50) was determined as 0.719 µM.

Take `CCCC[C@H](CO)NC(=O)c1ccc2c(c1)nc(Cc1cccs1)n2C(CC)CC` [Example 198, 1-(1-Ethyl-propyl)-2-thiophen-2-ylmethyl-1H-benzoimidazole-5-carboxylic acid ((R)-1-hydroxymethyl-pentyl)-amide]: the EC50 amounted to 8.88 µM.

For the compound `CCC(CC)n1c(Cc2cccs2)nc2cc(C(=O)N[C@@H](CC(C)C)C(=O)NCCCOCC3CC3)ccc21` [Example 391, 1-(1-Ethyl-propyl)-2-thiophen-2-ylmethyl-1H-benzoimidazole-5-carboxylic acid [(S)-1-(3-cyclopropylmethoxy-propylcarbamoyl)-3-methyl-butyl]-amide], the EC50 was 2.18 µM.

As to `CCC(CC)n1c(Cc2cccs2)nc2cc(C(=O)N[C@@H](CC(C)C)C(=O)NCCCN3CCCC(C)C3)ccc21` (stereo partly drawn) [Example 339, 1-(1-Ethyl-propyl)-2-thiophen-2-ylmethyl-1H-benzoimidazole-5-carboxylic acid {(S)-3-methyl-1-[3-(3-methyl-piperidin-1-yl)-propylcarbamoyl]-butyl}-amide], the half-maximal effective concentration (EC50) amounted to 0.444 µM.

Regarding `CC(C)C[C@H](NC(=O)c1ccc2c(c1)nc(Cc1cccs1)n2-c1ccccc1Cl)C(=O)O` [Example 165, (S)-2-{[1-(2-Chloro-phenyl)-2-thiophen-2-ylmethyl-1H-benzoimidazole-5-carbonyl]-amino}-4-methyl-pentanoic acid], the concentration giving a half-maximal response (EC50) was 1.01 µM.
